Measurements from patent US20060194748A1, “Methods for treating disorders induced by H. pylori infections and pharmaceutical compositions for the same” (National University Corporation Nagoya University, priority 2005, published 2006).
≈ marks a conversion by molar mass, not a printed value. Where two headings read alike, the source gives them in different places.

Legend:
H. pylori 26695 = assay: Time-kill curve test
Protocol: Glycine in BB was added to the cultures at the start of incubation. The mean values for the log number of CFU per milliliter versus time for H. pylori were tested with different concentrations of glycine. At 12-h intervals after drug addition, aliquots of each culture were spread onto BB agar for determination of the number of CFU.
The time course of the antibacterial effects was determined with strain 26695 (18). Briefly, bacteria cultured for 4 days on BB agar were diluted with fresh BB to ˜10^8 CFU/ml. […] At 0, 12, 24, 36, and 48 h, samples were removed and 0.1 ml of 10-fold serial dilution was plated onto BB agar. […] At 0, 6, 12, 18, and 24 h, samples were removed and 0.1 ml of 10-fold serial dilutions was plated onto BB agar. The number of colonies growing on the plates after 4 days of incubation was counted in both studies.

H. pylori strain 26695 [1] = assay: MBC of AMX with glycine by liquid culture method
Protocol: H. pylori was treated with the indicated concentrations of the test compounds for 3 days. AMX was used at concentrations of 0 to 75 ng/ml. […] The mean value for the log number of CFU per milliliter at each concentration was plotted.
By a second method, the minimal bactericidal concentrations (MBCs), defined as the lowest concentration of each antibiotic that completely killed the isolates, were determined by using liquid cultures with antimicrobial agents by a modification of the method of Sjöström et al. (31). […] After 3 days of incubation of H. pylori at 37° C. under microaerophilic conditions, aliquots from each culture were applied to BB agar for determination of the MBC. After 4 days of incubation, the number of CFU was counted.

H. pylori strains = assay: MIC of CLR for donor strains and CLR-resistant isogenic mutants (agar/disk dilution); assay type: cell-based, Helicobacter pylori
Protocol: The susceptibilities of the CLR-resistant strains were determined by the agar dilution method (27). […] The MIC of glycine was defined as the lowest concentration that inhibited the visible growth of isolates completely by the agar dilution method on Mueller-Hinton agar (Becton Dickinson and Company, Paramus, N.J.) plates supplemented with 5% aged sheep blood (Nippon Bio-Test Laboratories Inc., Tokyo, Japan) (M-H agar) (27).
(§1) Briefly, all isolates were incubated for 4 days on BB agar. After this incubation, inocula were prepared by suspending growth from the BB agar plates with antimicrobial agents in saline to achieve a suspension equivalent to a 2.0 McFarland standard. Final inocula of 10^6 CFU/spot were applied to M-H agar or BB. All plates were incubated for 3 days at 35° C. in a microaerophilic atmosphere, and the number of CFU was counted. In the liquid culture study, aliquots from each culture were applied to BB agar after 3 days of incubation of H. pylori at 37° C. under microaerophilic conditions. After 4 days of incubation, the number of CFU was counted. The mean value for the log number of CFU per milliliter was plotted.
CLR-resistant isogenic mutants with a single point mutation in domain V of the 23S rRNA gene were created from strain 26695 by natural transformation (3, 29). Transformants were isolated, and the MICs of CLR were determined by the disk dilution method.

[2] = test system: 31 H. pylori strains, including CLR-resistant strains
[3] = test system: Lactococcus lactis subspecies; details: cited from earlier work
H. pylori strain 26695 [4] = test system: H. pylori strain 26695
Protocol: The PAE on bacteria was measured by a modification of the method of Ibrahim et al. (19). After 4 days of growth of strain 26695 on BB agar, the bacteria were harvested, placed into PBS, and diluted with BB to ˜10^8 CFU/ml; and a final inoculum of 10^6 CFU/ml was applied to BB agar. […] After incubation for 8 h, the antibiotics were removed by dilution 1:10^3 into fresh BB and the cultures were incubated for 24 h. Samples were collected for viable counts (numbers of CFU per milliliter) every 4 h, plated onto BB agar plates, and incubated for 4 days. Viability curves were then determined. The control culture, which was not exposed to any antimicrobial agents, was treated similarly.
For quantification of the PAE, viable counts were determined before and after antibiotic exposure.

[5] = test system: CLR-susceptible and CLR-resistant H. pylori strains
Protocol: H. pylori strains were treated with the indicated concentrations of test compound for 3 days. The mean value for the log number of CFU per milliliter of all CLR-susceptible and all CLR-resistant H. pylori strains at each concentration was plotted. Glycine was used at concentrations of 0, 0.5, 1, 1.5, 2.0, and 2.5 mg/ml. […] Symbols: ▪, CLR-susceptible strains; ▴, CLR-resistant strains.
as §1

[6] = test system: 31 H. pylori strains, including CLR-resistant strains; assay: microbe, parasite or virus in culture; details: Helicobacter pylori

**Q.** Which results are given for `CC1(C)S[C@@H]2[C@H](NC(=O)[C@H](N)c3ccc(O)cc3)C(=O)N2[C@H]1C(=O)O` [AMX, amoxicillin]?
**A.** viable cells at 24 h (H. pylori 26695; AMX alone at 75 ng/ml): no viable cells; MBC of AMX with glycine relative to that of AMX alone (H. pylori strain 26695 [1]): 1/10; MBC (H. pylori strain 26695 [1]; Helicobacter pylori, 26695, read-out: MBC of AMX with glycine, with glycine at 0.5 mg/ml): 0.025 µg/mL; MBC (H. pylori strain 26695 [1]; Helicobacter pylori, 26695, read-out: MBC of AMX with glycine, with glycine at 1 mg/ml): 0.01 µg/mL; MBC (H. pylori strain 26695 [1]; Helicobacter pylori, 26695, read-out: MBC of AMX, with glycine at 0 mg/ml (AMX alone)): 0.075 µg/mL

**Q.** Which “MIC of CLR” value (H. pylori strains; isogenic mutant strain 26695:535) does the source give for `CC[C@H]1OC(=O)[C@H](C)[C@@H](O[C@H]2C[C@@](C)(OC)[C@@H](O)[C@H](C)O2)[C@H](C)[C@@H](O[C@@H]2O[C@H](C)C[C@H](N(C)C)[C@H]2O)[C@](C)(OC)C[C@@H](C)C(=O)[C@H](C)[C@@H](O)[C@]1(C)O` [CLR, clarithromycin] here?
**A.** The value was 4 µg/mL.

**Q.** And the “MIC of CLR” value (H. pylori strains; isogenic mutant strain 26695:628)?
**A.** Its value is 32 µg/mL.

**Q.** And the “MIC of CLR” value (H. pylori strains; strain 535 (donor, A-to-G at position 2144))?
**A.** The value was 4 µg/mL.

**Q.** What about the “MIC of CLR” value (H. pylori strains; strain 628 (donor, A-to-G at position 2143)) of the same molecule?
**A.** Its value is 32 µg/mL.

**Q.** Which results are given for `NCC(=O)O` [glycine, Glycine]?
**A.** time of significant decrease in number of CFU (P<0.01) (H. pylori 26695; glycine alone, all concentrations): 48 h; earliest time of significant decrease in number of CFU (P<0.01) (H. pylori 26695; glycine at 5 mg/ml): 24 h; earliest time of significant decrease in number of CFU (P<0.01) (H. pylori 26695; glycine at 10 mg/ml): 12 h; nature of the effect of glycine (H. pylori 26695; time-kill, 0 to 10 mg/ml): bactericidal; MIC of glycine [2]: the same as the MIC for strain 26695; difference in glycine MIC for CLR-susceptible and -resistant strains [2]: no difference; glycine concentration above which no colonies were detected in M-H agar ([2]; all strains tested): more than 2.5 mg/ml; glycine content of medium above which growth failed [3]: more than 2%; PAE against H. pylori (H. pylori strain 26695 [4]): no PAE; difference in suppression of growth between CLR-susceptible and -resistant strains ([5]; including isogenic mutant strains, FIG. 1): no difference; 80% Inh. % ([5]; see FIG. 1): 0.05 mg/mL; MIC50 [6]: 1500 µg/mL (≈ 20 mM); MIC90 ([6]; 31 strains): 2500 µg/mL (≈ 33.3 mM); MIC ([6]; ATCC43504, read-out: MIC of glycine): 2500 µg/mL; MIC ([6]; read-out: MIC of glycine): 2500 µg/mL; MIC ([6]; read-out: glycine MICs for the 31 strains): 1000 to 2500 µg/mL (≈ 13.3 to 33.3 mM)
